In patent US9271934B2, “Water dispersible glyceryl monooleate magnetic nanoparticle formulation” (Institute of Life Sciences, priority 2009, dated 2016):

Key:
[1] = test system: MCF-7 (breast cancer) cell line; assay: Mitogenic (MTT) assay, antiproliferative effect in MCF-7 cells; format: cell-based
Description: The cell culture experiments were carried out in MCF-7 (breast cancer) cell line purchased from American Type Culture Collection (ATCC, Manassas, Va.) were grown in RPMI 1640 medium (Himedia Laboratories Pvt. Ltd., Mumbai, India) supplemented with 10% fetal bovine serum (Himedia Laboratories Pvt. Ltd., Mumbai, India) and 100 μg/ml penicillin G and 100 μg/ml streptomycin (Gibco BRL, Grand island, NY) at 37° C. in a humidified and 5% CO2 atmosphere (Hera Cell, Thermo Scientific, Waltham, Mass.).
(§1) To find out the cytotoxicity of the anticancer drugs, mitogenic assay was carried out. The MCF-7 cells were seeded at 5,000 per well in 96 well plate (Corning, N.Y., USA) and kept in the incubator for 24 hours for better cell attachment. […] Glyceryl monooleate (GMO) Magnetic nanoparticles (MNPs) without drug and medium were used as respective controls. The medium was changed on 2nd and 4th days following the drug treatment; no further dose of drug was added. Viability of the cells was determined at 5th day. After the specified incubation time, 10 μl MTT (Sigma) was added, and the plates were incubated for 3 hours at 37° C. in a cell culture incubator (Hera Cell, Thermo Scientific, Waltham, Mass.), following which the intracellular formazan crystals were solubilized in dimethyl sulfoxide and the color intensity was measured at 540 nm using a microplate reader (Synergy HT, BioTek Instruments, Inc., Winooski, Vt.). The antiproliferative effect of different treatments was calculated as a percentage of cell growth with respect to respective controls.
The cell culture experiments were carried out in MCF-7 (breast cancer) cell line purchased from American Type Culture Collection (ATCC, Manassas, Va.) were grown in RPMI 1640 medium (Himedia Laboratories PVT. LTD., Mumbai, India) supplemented with 10% fetal bovine serum (Himedia Laboratories Pvt. Ltd., Mumbai, India) and 100 μg/ml penicillin G and 100 μg/ml streptomycin (Gibco BRL, Grand island, NY) at 37° C. in a humidified and 5% CO2— atmosphere (Hera Cell, Thermo Scientific, Waltham, Mass.).
as §1, with “GMO-MNPs” for “Glyceryl monooleate (GMO) Magnetic nanoparticles (MNPs)”

[2] = test system: human erythrocytes; conditions: pluronic used as emulsifying agent for amphotericin-B; cited from earlier work
[3] = higher doses; cited from earlier work
[4] = MCF-7, MTT day 5, highest concentration of the range (1000 ng/ml, printed for paclitaxel)
[5] = MCF-7, MTT day 5, lowest concentration of the range (1 ng/ml, printed for paclitaxel)

In the case of `CC(=O)O[C@H]1C(=O)[C@@]2(C)[C@H]([C@H](OC(=O)c3ccccc3)[C@]3(O)C[C@H](OC(=O)[C@H](O)[C@@H](NC(=O)c4ccccc4)c4ccccc4)C(C)=C1C3(C)C)[C@]1(OC(C)=O)CO[C@@H]1C[C@@H]2O` [paclitaxel, Paclitaxel], the cell viability percentage [1, 4] is reported as “about 30%” and the cell viability percentage [1, 5] is reported as 95%.
In the case of Pluronic F-127, the “concentration with detectable cell lysis of human erythrocytes” value [2] is given as 16 µg/mL and the “effect on cholesterol and triglycerides in the blood plasma” value [3] is given as “elevation of cholesterol and triglycerides in the blood plasma”.
`CO[C@H]1C[C@@H]2CC[C@@H](C)[C@@](O)(O2)C(=O)C(=O)N2CCCC[C@H]2C(=O)O[C@H]([C@H](C)C[C@@H]2CC[C@@H](O)[C@H](OC)C2)CC(=O)[C@H](C)/C=C(\C)[C@@H](O)[C@@H](OC)C(=O)[C@H](C)C[C@H](C)/C=C/C=C/C=C/1C` [rapamycin] showed an IC50 ([1]; Homo sapiens, MCF7, 120 h, MCF-7 cells, MTT assay on day 5, medium changed on days 2 and 4) of 0.0588 µg/mL, a cell viability percentage [1, 4] of 37% and a cell viability percentage [1, 5] of 65%.
